Calls of active or inactive are those of the source. The rule behind the calls is not given here.
What was measured:
Clostridium perfringens [1] = test: Competitive inhibition of Clostridium perfringens ATCC 10543 sialidase Nan1 c-terminal catalytic domain using 4-methylumbelliferyl-alpha-D-N-acetylneuraminic acid sodium salt hydrate as substrate by Lineweaver-Burk and Dixon plot analysis
[2] = biological target: Neuraminidase (Influenza A virus (strain A/Brevig Mission/1/1918 H1N1) (Influenza Avirus (strain A/South Carolina/1/1918 H1N1)), UniProt Q9IGQ6); test: (§1) Inhibition of recombinant influenza A virus H1N1 A/Bervig_Mission/1/18 sialidase activity using 4-methylumbelliferyl-alpha-D-N-acetylneuraminic acid sodium salt hydrate as substrate by fluorimetric analysis; design: species or system Influenza A virus (A/Brevig Mission/1/1918(H1N1))
[3] = biological target: Neuraminidase (Influenza A virus (strain A/Brevig Mission/1/1918 H1N1) (Influenza Avirus (strain A/South Carolina/1/1918 H1N1))) (UniProt Q9IGQ6); test: as §1; settings: Influenza A virus (A/Brevig Mission/1/1918(H1N1))
[4] = Inhibition of alpha-glucosidase
[5] = Reversible inhibition of Clostridium perfringens ATCC 10543 sialidase Nan1 c-terminal catalytic domain using 4-methylumbelliferyl-alpha-D-N-acetylneuraminic acid sodium salt hydrate as substrate compound pre-incubated prior to substrate addition by fluorimetric analysis; settings: read-out: Ki(app)
[6] = Inhibition of beta-glucosidase at 200 uM
Clostridium perfringens [7] = test: Inhibition of Clostridium perfringens ATCC 10543 sialidase Nan1 c-terminal catalytic domain using 4-methylumbelliferyl-alpha-D-N-acetylneuraminic acid sodium salt hydrate as substrate at IC50 concentration pre-incubated for 10 mins prior substrate addition by fluorimetric analysis; settings: TDE = time-dependent effect
[8] = biological target: Neuraminidase (Influenza A virus (strain A/Brevig Mission/1/1918 H1N1) (Influenza Avirus (strain A/South Carolina/1/1918 H1N1))) (UniProt Q9IGQ6); test: Noncompetitive inhibition of recombinant influenza A virus H1N1 A/Bervig_Mission/1/18 sialidase activity using 4-methylumbelliferyl-alpha-D-N-acetylneuraminic acid sodium salt hydrate as substrate by Lineweaver-Burk and Dixon plot analysis; settings: Influenza A virus (A/Brevig Mission/1/1918(H1N1))
[9] = Inhibition of rhamnosidase at 200 uM
Clostridium perfringens [10] = test: (§2) Inhibition of Clostridium perfringens ATCC 10543 sialidase Nan1 c-terminal catalytic domain using 4-methylumbelliferyl-alpha-D-N-acetylneuraminic acid sodium salt hydrate as substrate by fluorimetric analysis
[11] = as §2
[12] = Inhibition of alpha-glucosidase at 200 uM
[13] = biological target: Neuraminidase (Influenza A virus (strain A/Brevig Mission/1/1918 H1N1) (Influenza Avirus (strain A/South Carolina/1/1918 H1N1))) (UniProt Q9IGQ6); test: Inhibition of recombinant influenza A virus H1N1 A/Bervig_Mission/1/18 sialidase activity using 4-methylumbelliferyl-alpha-D-N-acetylneuraminic acid sodium salt hydrate as substrate at 200 uM by fluorimetric analysis; settings: Influenza A virus (A/Brevig Mission/1/1918(H1N1))

Sequence of Neuraminidase (Influenza A virus (strain A/Brevig Mission/1/1918 H1N1) (Influenza Avirus (strain A/South Carolina/1/1918 H1N1))) (Q9IGQ6 whole entry): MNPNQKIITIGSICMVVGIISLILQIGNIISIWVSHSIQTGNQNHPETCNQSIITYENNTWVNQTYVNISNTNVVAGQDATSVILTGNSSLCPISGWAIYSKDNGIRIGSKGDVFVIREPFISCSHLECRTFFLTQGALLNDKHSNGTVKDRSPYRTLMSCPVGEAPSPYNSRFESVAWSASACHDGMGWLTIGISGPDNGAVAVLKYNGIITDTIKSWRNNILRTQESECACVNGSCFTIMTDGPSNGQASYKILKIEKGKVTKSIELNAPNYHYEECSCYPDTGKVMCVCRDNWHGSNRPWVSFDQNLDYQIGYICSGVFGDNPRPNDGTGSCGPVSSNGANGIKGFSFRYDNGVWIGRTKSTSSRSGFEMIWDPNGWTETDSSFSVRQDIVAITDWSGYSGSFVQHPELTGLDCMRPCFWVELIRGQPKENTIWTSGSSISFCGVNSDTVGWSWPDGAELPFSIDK
Sequence of Neuraminidase (Influenza A virus (strain A/Brevig Mission/1/1918 H1N1) (Influenza Avirus (strain A/South Carolina/1/1918 H1N1)), UniProt Q9IGQ6) (Q9IGQ6 whole entry): as above

Question: Which results are given for CC(=O)O[C@H](CC=C(C)C)C1=CC(=O)c2c(O)ccc(O)c2C1=O [ACETYLSHIKONIN]?
Answer: Kic (Clostridium perfringens [1]): 1.1 µM; IC50 [2]: 41.4 µM; inhibition [3]: Dose-dependent effect; IC50 [4]: 158 µM; Ki [5]: 1.01 µM; inhibition [6]: inactive; inhibition (Clostridium perfringens [7]): tde; inhibition [8]: Active; inhibition [9]: inactive; inhibition (Clostridium perfringens [10]): Dose-dependent effect; IC50 [11]: 2.5 µM

Question: Which results are given for CC(C)=CC[C@@H](OC(=O)CC(C)(C)O)C1=CC(=O)c2c(O)ccc(O)c2C1=O [BETA-HYDROXYISOVALERYLSHIKONIN]?
Answer: Kic (Clostridium perfringens [1]): 0.8 µM; IC50 [2]: 40.5 µM; inhibition [3]: Dose-dependent effect; inhibition [12]: inactive; Ki [5]: 2.24 µM; inhibition [6]: inactive; inhibition (Clostridium perfringens [7]): tde; inhibition [8]: Active; inhibition [9]: inactive; inhibition (Clostridium perfringens [10]): Dose-dependent effect; IC50 [11]: 3.4 µM

Question: With CC(C)=CCCC1=CC(=O)c2c(O)ccc(O)c2C1=O [DEOXYSHIKONIN] as the compound, how does the Kic (Clostridium perfringens [1]) read?
Answer: Its Kic is 15.9 µM.

Question: What about the IC50 [2] of the same compound?
Answer: The IC50 was 63.4 µM.

Question: And the inhibition [3]?
Answer: The inhibition was “Dose-dependent effect”.

Question: And the inhibition [12]?
Answer: Its inhibition is “inactive”.

Question: What about the Ki [5] of the same compound?
Answer: The Ki was 11.9 µM.

Question: And the inhibition [6]?
Answer: Its inhibition is “inactive”.

Question: And the inhibition (Clostridium perfringens [7])?
Answer: The inhibition was “tde”.

Question: What about the inhibition [8] of the same compound?
Answer: The inhibition was “Active”.

Question: And the inhibition [9]?
Answer: The inhibition was “inactive”.

Question: And the inhibition (Clostridium perfringens [10])?
Answer: The inhibition was “Dose-dependent effect”.

Question: And the IC50 [11]?
Answer: The IC50 was 27.5 µM.

Question: Which results are given for CC(C)=CC[C@@H](OC(=O)C=C(C)C)C1=CC(=O)c2c(O)ccc(O)c2C1=O [DIMETHYLACRYLSHIKONIN]?
Answer: Kic (Clostridium perfringens [1]): 0.6 µM; IC50 [2]: 47.3 µM; inhibition [3]: Dose-dependent effect; IC50 [4]: 141 µM; Ki [5]: 1.75 µM; inhibition [6]: inactive; inhibition (Clostridium perfringens [7]): tde; inhibition [8]: Active; inhibition [9]: inactive; inhibition (Clostridium perfringens [10]): Dose-dependent effect; IC50 [11]: 1.9 µM

Question: For CC(C)=CC[C@@H](OC(=O)C(C)C)C1=CC(=O)c2c(O)ccc(O)c2C1=O [ISOBUTYLSHIKONIN], which Kic (Clostridium perfringens [1]) is on record?
Answer: The Kic was 0.9 µM.

Question: What about the IC50 [2] of the same compound?
Answer: The IC50 was 40.5 µM.

Question: And the inhibition [3]?
Answer: The inhibition was “Dose-dependent effect”.

Question: And the IC50 [4]?
Answer: Its IC50 is 144 µM.

Question: What about the Ki [5] of the same compound?
Answer: Its Ki is 0.26 µM.

Question: And the inhibition [6]?
Answer: Its inhibition is “inactive”.

Question: What about the inhibition (Clostridium perfringens [7]) of the same compound?
Answer: Its inhibition is “tde”.

Question: What about the inhibition [8] of the same compound?
Answer: Its inhibition is “Active”.

Question: What about the inhibition [9] of the same compound?
Answer: Its inhibition is “inactive”.

Question: And the inhibition (Clostridium perfringens [10])?
Answer: Its inhibition is “Dose-dependent effect”.

Question: And the IC50 [11]?
Answer: The IC50 was 2.9 µM.

Question: Which Kic (Clostridium perfringens [1]) does the source give for CC(C)=CC[C@@H](O)C1=CC(=O)c2c(O)ccc(O)c2C1=O [SHIKONIN] here?
Answer: Its Kic is 21.4 µM.

Question: What about the IC50 [2] of the same compound?
Answer: Its IC50 is 34.1 µM.

Question: And the inhibition [3]?
Answer: The inhibition was “Dose-dependent effect”.

Question: And the inhibition [12]?
Answer: Its inhibition is “inactive”.

Question: And the Ki [5]?
Answer: Its Ki is 58.8 µM.

Question: What about the inhibition [6] of the same compound?
Answer: Its inhibition is “inactive”.

Question: What about the inhibition (Clostridium perfringens [7]) of the same compound?
Answer: The inhibition was “tde”.

Question: And the inhibition [8]?
Answer: Its inhibition is “Active”.

Question: And the inhibition [9]?
Answer: The inhibition was “inactive”.

Question: And the inhibition (Clostridium perfringens [10])?
Answer: The inhibition was “Dose-dependent effect”.

Question: What about the IC50 [11] of the same compound?
Answer: Its IC50 is 53.8 µM.

Question: Which Kic (Clostridium perfringens [1]) does the source give for CC(C)=CCC(OC(=O)CC(C)C)c1coc(-c2cc(O)ccc2O)c1 (configuration not stated) [SHIKONOFURAN C] here?
Answer: Its Kic is 0.2 µM.

Question: What about the inhibition [13] of the same compound?
Answer: The inhibition was “inactive”.

Question: What about the IC50 [2] of the same compound?
Answer: The IC50 was > 100 µM.

Question: What about the IC50 [4] of the same compound?
Answer: Its IC50 is 20.8 µM.

Question: And the Ki [5]?
Answer: Its Ki is 0.15 µM.

Question: And the inhibition [6]?
Answer: Its inhibition is “inactive”.

Question: What about the inhibition (Clostridium perfringens [7]) of the same compound?
Answer: The inhibition was “tde”.

Question: And the inhibition [9]?
Answer: The inhibition was “inactive”.

Question: What about the inhibition (Clostridium perfringens [10]) of the same compound?
Answer: Its inhibition is “Dose-dependent effect”.

Question: And the IC50 [11]?
Answer: The IC50 was 0.6 µM.

Question: Which Kic (Clostridium perfringens [1]) does the source give for CC(C)=CCC(OC(=O)C(C)C)c1coc(-c2cc(O)ccc2O)c1 (configuration not stated) [SHIKONOFURAN D] here?
Answer: Its Kic is 0.3 µM.

Question: What about the inhibition [13] of the same compound?
Answer: The inhibition was “inactive”.

Question: What about the IC50 [2] of the same compound?
Answer: Its IC50 is > 100 µM.

Question: What about the IC50 [4] of the same compound?
Answer: Its IC50 is 37.8 µM.

Question: And the Ki [5]?
Answer: Its Ki is 0.21 µM.

Question: And the inhibition [6]?
Answer: Its inhibition is “inactive”.

Question: And the inhibition (Clostridium perfringens [7])?
Answer: Its inhibition is “tde”.

Question: What about the inhibition [9] of the same compound?
Answer: The inhibition was “inactive”.

Question: What about the inhibition (Clostridium perfringens [10]) of the same compound?
Answer: Its inhibition is “Dose-dependent effect”.

Question: And the IC50 [11]?
Answer: Its IC50 is 1 µM.

Question: Which Kic (Clostridium perfringens [1]) does the source give for CC(C)=CCC(OC(=O)C=C(C)C)c1coc(-c2cc(O)ccc2O)c1 (configuration not stated) [SHIKONOFURAN E] here?
Answer: Its Kic is 0.1 µM.

Question: And the inhibition [13]?
Answer: Its inhibition is “inactive”.

Question: What about the IC50 [2] of the same compound?
Answer: The IC50 was > 100 µM.

Question: What about the IC50 [4] of the same compound?
Answer: Its IC50 is 26.6 µM.

Question: And the Ki [5]?
Answer: Its Ki is 0.05 µM.

Question: What about the inhibition [6] of the same compound?
Answer: Its inhibition is “inactive”.

Question: What about the inhibition (Clostridium perfringens [7]) of the same compound?
Answer: The inhibition was “tde”.

Question: And the inhibition [9]?
Answer: Its inhibition is “inactive”.

Question: What about the inhibition (Clostridium perfringens [10]) of the same compound?
Answer: Its inhibition is “Dose-dependent effect”.

Question: And the IC50 [11]?
Answer: The IC50 was 0.2 µM.

Question: With OCC(CO)N[C@H]1C[C@](O)(CO)[C@@H](O)[C@H](O)[C@H]1O [VOGLIBOSE] as the compound, how does the IC50 [4] read?
Answer: Its IC50 is 23.4 µM.

— ChEMBL document CHEMBL1944555, “Selective and slow-binding inhibition of shikonin derivatives isolated from Lithospermum erythrorhizon on glycosyl hydrolase 33 and 34 sialidases” (Bioorg Med Chem, 2012)
